Source: patent US20100003346A1, “COMBINATION METHODS OF TREATING CANCER” (priority 2006, published 2010)
Like-named read-outs stand apart in the source and are kept apart here.

What was measured:
[1] = system: DA-3 murine mammary adenocarcinoma; test: Cytotoxicity assay (MTS, CellTiter 96) in DA-3 cells; conditions: for IC50: Mus musculus
Method: (§1) CT26 is a murine colon carcinoma. DA-3 is a murine mammary adenocarcinoma. TRAMP C1 is a murine prostate adenocarcinoma. MCF7 is a human breast adenocarcinoma. M IA PaCa-2 is a human pancreatic carcinoma. D122 is a murine lung carcinoma. BCL1 is a murine B cell leukemia. All cell lines were purchased from ATCC (Rockville, Md., USA), except for DA3 and D122 which were kindly provided by Prof. Y. Keisari (Tel-Aviv University, Israel).
(§2) The cells were maintained in a humidified atmosphere, at 37° C. with 5% CO2. CT26 and DA-3 cells were maintained in Dulbecco's modified Eagle's medium (Biological Industries, Beit-Haemek, Israel), supplemented with 10% FCS, 2 mM L-glutamine, 100 U ml^−1 penicillin, 100 μg ml^−1 streptomycin, 1 mM sodium pyruvate and 1:100 dilution of nonessential amino acids (all purchased from Biological Industries, Israel).
(§3) All cells (except for BCL1) were plated into 96-well microtiter plates (Corning) at a density of 2*10^3 cells per well and were allowed to adhere prior to treatment. BCL1 cells were seeded at a density of 20*10^4 cells per well. The cells were exposed to MJ, cytotoxic drugs, 2DG or their combinations at different concentrations for 24 hours. Cytotoxic drugs and 2DG were added 1 h prior to MJ addition.
(§4) Inhibition of cell proliferation was determined by the CellTiter 96 Aqueous Non-Radioactive Cell Proliferation Assay (Promega, Madison, Wis., USA). Upon completion of a given experiment, 20 μl of a mixture (20:1) of MTS (a tetrazolium compound, at a final concentration of 333 μg/ml)+phenazine methosulfate (at a final concentration of 25 μM) were added to each well of the 96-well plate for 1 h at 37° C. This allowed for the development of the reaction in which dehydrogenases reduce the MTS in metabolically active cells. […] Soluble MTS formazan product at wavelength 490 nm was measured with the CERES 900 HDi ELISA reader (Bio-Tek Instruments, Highland Park, Vt., USA). Optical density is directly proportional to the number of living cells in culture. Cytotoxicity (%) was calculated in the following way: [(absorbance of control cells−absorbance of drug-treated cells)/absorbance of control cells]×100.

[2] = system: MCF7 human breast adenocarcinoma; test: Cytotoxicity assay (MTS, CellTiter 96) in MCF7 cells; type: cell-based
Source text: as §1
(§5) MCF7, MIA PaCa-2 and BCL1 cells were maintained in RPMI-1640 medium (Biological Industries, Israel) supplemented with 10% FCS, 2 mM L-glutamine, 100 U ml^−1 penicillin and 100 μg ml^−1 streptomycin.
as §3, §4

[3] = system: CT26 murine colon carcinoma; test: Cytotoxicity assay (MTS, CellTiter 96) in CT26 cells; type: cell-based
Method: as §1
as §2, with “Israel). […]” for “Israel).”
Inhibition of cell proliferation was determined by the CellTiter 96 Aqueous Non-Radioactive Cell Proliferation Assay (Promega, Madison, Wis., USA). […] Soluble MTS formazan product at wavelength 490 nm was measured with the CERES 900 HDi ELISA reader (Bio-Tek Instruments, Highland Park, Vt., USA). […] Cytotoxicity (%) was calculated in the following way: [(absorbance of control cells−absorbance of drug-treated cells)/absorbance of control cells]×100.

[4] = system: D122 murine lung carcinoma; test: Cytotoxicity assay (MTS, CellTiter 96) in D122 cells; conditions: for IC50: Mus musculus
Method: as §1, §3, §4

[5] = system: BCL1 murine B cell leukemia; test: Cytotoxicity assay (MTS, CellTiter 96) in freshly extracted BCL1 cells; conditions: for Interaction of MJ with drug (cytotoxicity vs expected additivity): BCL1; for Cooperative effect of combination of MJ and chemotherapeutic drug: BCL1 cells, drug combined with fixed concentration of MJ (0.1 mM), cooperative = pV<0.05 vs expected additivity; for IC50: Mus musculus
Source text: as §1, §5
BCL1 cells, which are unable to grow continuously in culture, were maintained in BALB/c mice. Blood was taken from the tail vein of BCL1-bearing mice on day 23-28 post inoculation, and depleted of red blood cells (RBC) using RBC lysis buffer (Sigma-Aldrich). The purified leukemic cells were used for in vitro and in vivo experiments.
as §3, §4

[6] = system: BCL1 leukemia; test: Survival of BCL1 leukemia-bearing mice; type: in vivo, BALB/c mice; conditions: MJ 60 mg/kg i.v. or adriamycin 4 mg/kg i.p. alone
Method: Balb/c male mice (7-8 weeks old) were obtained from the breeding colony of Tel-Aviv University, Israel. Animal care and experimentation were carried out in accordance with Tel-Aviv University guidelines and approved by the institutional animal use and care committee. Mice were kept in cages under standard food and housing conditions during the experiments.
(§6) 2×10^4 BCL1 cells, freshly extracted from BCL1 leukemia bearing BALB/c mice, were inoculated intraperitoneally (i.p.) into mice in 100 μl PBS to produce tumor growth. Methyl jasmonate at 60 mg/kg was administered to animals 5 times a week, daily, for 4 weeks, starting one day after cell inoculation. […] MJ was dissolved in a lipid formulation, Lipofundin (B. Braun Melsungen, Melsungen, Germany). The adriamycin was given to mice twice, on days 7 and 14, at 4 mg/kg, i.p. Control mice were treated with the vehicle alone. The survival of mice was monitored daily.
Statistical significance in in vitro experiments was assessed using the two-tailed Student's t-test. P<0.05 was considered statistically significant. The survival curves (Kaplan-Meier test) and statistical analysis (Mantel-Cox test) were carried out using Statistical software.
Since adriamycin is used for treatment of leukemia, it was chosen for an experiment assessing a combination with MJ in vivo. […]

[7] = system: MIA PaCa-2 human pancreatic carcinoma; test: Cytotoxicity assay (MTS, CellTiter 96) in MIA PaCa-2 cells; conditions: for IC50: Homo sapiens; for Cooperative effect of combination of MJ and chemotherapeutic drug: MIA PaCA-2 cells, drug combined with fixed concentration of MJ, cooperative = pV<0.05 vs expected additivity
Source text: as §1, §5, §3, §4

[8] = system: TRAMP C1 murine prostate adenocarcinoma; test: Cytotoxicity assay (MTS, CellTiter 96) in TRAMP C1 cells; type: cell-based; conditions: for Cooperative effect of combination of MJ and chemotherapeutic drug / IC50: TRAMP C1 cells; for Cooperative effect of combination of MJ and chemotherapeutic drug: drug combined with fixed concentration of MJ, cooperative = pV<0.05 vs expected additivity; for IC50: Mus musculus
Method: as §1
TRAMP C1 cells were grown in Dulbecco's modified Eagle's medium supplemented with 10% FCS, 2 mM L-glutamine, 100 U ml^−1 penicillin, 100 μg ml^−1 streptomycin, 1 mM sodium pyruvate, 1:100 dilution of nonessential amino acids, 5 μg/ml bovine insulin and 10 nM dehydroisoandrosterone.
as §3, §4

[9] = mouse, in vivo
Method: as §6

[10] = drug at other concentrations + 0.1 mM MJ

O=CC[C@@H](O)[C@H](O)[C@H](O)CO [2DG, 2-Deoxy-D-glucose]
Effect of 2DG on cytotoxicity of MJ ([1]; DA-3, 2DG 0.5 mM with MJ): No cooperative effect
Effect of 2DG on cytotoxicity of MJ ([2]; MCF7, 2DG 0.5 mM, other MJ concentrations): additive
Effect of 2DG on cytotoxicity of MJ ([3]; CT26, 2DG 0.5 mM, each MJ concentration, pV<0.05): significantly enhanced
Effect of 2DG on cytotoxicity of MJ ([4]; D122, 2DG 0.5 mM, each MJ concentration, pV<0.05): significantly enhanced

COc1cccc2c1C(=O)c1c(O)c3c(c(O)c1C2=O)C[C@@](O)(C(=O)CO)C[C@@H]3O[C@H]1C[C@H](N)[C@H](O)[C@H](C)O1 [Adriamycin]
Interaction of MJ with drug (cytotoxicity vs expected additivity) ([5]; adriamycin 10 and 25 ng/ml + 0.1 mM MJ): cooperation
Interaction of MJ with drug (cytotoxicity vs expected additivity) [5, 10]: additive effect
Cooperative effect of combination of MJ and chemotherapeutic drug [5]: +
Survival of BCL1 leukemia-bearing mice, single agent [6]: did not induce increased survival

O=NN(CCCl)C(=O)NCCCl [BCNU, 1,3-bis{2-Chloroethyl}-1-nitroso-urea]
Interaction of MJ with drug (cytotoxicity vs expected additivity) ([5]; BCNU 2.5 and 5 μg/ml + 0.1 mM MJ, pV<0.05): cooperation
Interaction of MJ with drug (cytotoxicity vs expected additivity) [5, 10]: additive effect
Cooperative effect of combination of MJ and chemotherapeutic drug [5]: +
IC50 ([7]; MIA PaCa-2, read-out: IC50 of BCNU by itself): > 25 µg/mL
IC50 ([7]; MIA PaCa-2, read-out: IC50 of BCNU in the combination with MJ): < 1 µg/mL
Cooperative effect of combination of MJ and chemotherapeutic drug [7]: +
Interaction of MJ with drug (cytotoxicity vs expected additivity) ([7]; MIA PaCa-2, BCNU at all concentrations tested (1-25 μg/ml) + 1 mM MJ): strong cooperative effects

N.N.[Cl][Pt][Cl] [Cisplatin, cis Diammineplatinum (II) dichloride]
Cooperative effect of combination of MJ and chemotherapeutic drug [7]: +
Cooperative effect of combination of MJ and chemotherapeutic drug [8]: +

CC/C=C\CC1C(=O)CCC1CC(=O)OC (stereo not shown) [MJ, methyl 3-oxo-2-(2-pentenyl)cyclopentaneacetic acid]
IC50 ([5]; BCL1, 24 h, read-out: IC50 of MJ): 560 ± 90 µM
IC50 ([5]; BCL1, read-out: IC50 of MJ): 560 µM
IC50 ([7]; MIA PaCa-2, 24 h, read-out: IC50 of MJ): 1460 ± 130 µM
IC50 ([1]; DA-3, 24 h, read-out: IC50 of MJ): 1910 ± 80 µM
IC50 ([8]; 24 h exposure, read-out: IC50 of MJ): 2940 ± 130 µM
IC50 ([2]; Homo sapiens, MCF7 cells, 24 h exposure): 1490 ± 60 µM
Tolerability of MJ dose [9]: well tolerated
IC50 ([3]; Mus musculus, CT26 cells, 24 h exposure): 2590 ± 120 µM
IC50 ([4]; 24 h, read-out: IC50 of MJ): 1220 ± 60 µM

CC(=O)O[C@H]1C(=O)[C@@]2(C)[C@H]([C@H](OC(=O)c3ccccc3)[C@]3(O)C[C@H](OC(=O)[C@H](O)[C@@H](NC(=O)c4ccccc4)c4ccccc4)C(C)=C1C3(C)C)[C@]1(OC(C)=O)CO[C@@H]1C[C@@H]2O [Taxol]
Interaction of MJ with drug (cytotoxicity vs expected additivity) ([5]; drug + 0.1 mM MJ): No cooperative effect
Cooperative effect of combination of MJ and chemotherapeutic drug ([1]; DA-3 cells, drug combined with fixed concentration of MJ, cooperative = pV<0.05 vs expected additivity): +
IC50 ([1]; DA-3, read-out: IC50 of taxol alone): 9 µg/mL
IC50 ([1]; DA-3, read-out: IC50 of taxol in combination with MJ): 2.5 µg/mL
IC50 ([8]; drug alone, read-out: IC 50 of taxol): 38 µg/mL
IC50 ([8]; with 1 mM MJ, read-out: IC 50 of taxol by combined treatment with MJ): 2 µg/mL
Combined effect of taxol with MJ vs expected additivity ([8]; TRAMP C1, taxol at all concentrations tested (1-50 μg/ml) + 1 mM MJ): significantly higher than the expected additivity
Cooperative effect of combination of MJ and chemotherapeutic drug [8]: +
Interaction of MJ with drug (cytotoxicity vs expected additivity) ([2]; MCF7, taxol 2.5 μg/ml + 1 mM MJ): enhances the cytotoxic capability
Interaction of MJ with drug (cytotoxicity vs expected additivity) ([2]; MCF7, taxol at other concentrations + 1 mM MJ): additive
Cooperative effect of combination of MJ and chemotherapeutic drug ([2]; MCF7 cells, drug combined with fixed concentration of MJ, cooperative = pV<0.05 vs expected additivity): +
Cooperative effect of combination of MJ and chemotherapeutic drug ([4]; D122 cells, drug combined with fixed concentration of MJ, cooperative = pV<0.05 vs expected additivity): +
IC50 ([4]; read-out: IC50 of taxol alone): 8.2 µg/mL
IC50 ([4]; read-out: IC50 of taxol in the presence of MJ): < 1 µg/mL
